Data reported in US20030138812A1, “Assessment of ecosystem health by evaluating multiple biomarkers in a nonhuman organism” (priority 2000, published 2003).
Read-outs that look alike come from different tables or passages of the source. Marks after values point to notes of the source that are not given here.

Key:
[1] = tested on: Ilyanassa obsoleta (mud snails); assay: Endosulfan exposure: biomarker responses in mud snails; conditions: 8-hour exposure
[2] = tested on: Palaeomonetes pugio (grass shrimp); assay: Atrazine stress: biomarker responses in grass shrimp; assay type: in vivo; conditions: for B-crystallin / Metallo. (metallothionein) / SOD (Mn SOD) / ubiquitin: 8-hour exposure
Procedure: (§1) During the seven-day acclimation, grass shrimp were subject to a […] photosynthetic-active-radiation 14 hour photoperiod at 22° C. […] Dissolved oxygen, ammonia content, and temperature were continually monitored throughout the seven-day chamber acclimation.
Atrazine stress—Grass shrimp were exposed to […], or 1 mg/L of an acetone stock of technical grade atrazine (99%).
(§2) Samples were vortexed for 30 seconds and then centrifuged at 10,000× g for 5 minutes. The supernatant was placed in a new tube for LPO and GSH analyses. Protein concentration of samples were assayed by the method of Ghosh et al. (1988), supra.
(§3) Samples were then boiled for 3 minutes, allowed to sit at 25° C. for 5 minutes, and then centrifuged at 10,000× g for 5 minutes. […] The sample was then subjected to another protein concentration assay.
(§4) Samples were analyzed for LPO and total GSH content following the manufacturer's instruction. Samples for each assay were analyzed in triplicate, and sample means provided independent unit of statistical analysis.
(§5) All samples were analyzed in triplicate. ELISPOT technique on nitrocellulose membrane was employed using a dot blot apparatus.

[3] = tested on: Ilyanassa obsoleta (mud snails); assay: Atrazine exposure: biomarker responses in mud snails; assay type: in vivo; conditions: 8-hour exposure
Procedure: Tanks were aerated with air stones. Snails were fed commercially available algal pellets. […]
(§6) Samples for each assay were analyzed in triplicate.
(§7) Sample was then subjected to another protein concentration assay.
(§8) All samples were analyzed in triplicate.

[4] = tested on: Ilyanassa obsoleta (mud snails)
Procedure: To determine that the antibodies bound to their specific targets, preliminary experiments were conducted to ensure the validity of the antibody assays. Snails were exposed either to high temperature, cadmium, ethanol, or acetone, homogenized in an SDS/50 mM dithiothreitol buffered solution, subjected to SDS-PAGE, immunoblotted to PVDF membrane, and assayed with at least 3 different antibodies per cellular parameter. […] Purified protein of each cellular parameter was run beside control and treated samples.

[5] = tested on: Palaeomonetes pugio (grass shrimp); assay type: in vivo
Text: Purified protein of each cellular parameter was run along side control and treated samples.

[6] = tested on: Palaeomonetes pugio (grass shrimp); assay: Cadmium stress: biomarker responses in grass shrimp; assay type: in vivo; conditions: for Cyt. P450 (cytochrome P450 2E1) / SOD (Mn SOD): 8-hour exposure
Procedure: as §1
Cadmium stress—Grass shrimp were subjected to an 8-hour exposure to 0 M, […], and […] cadmium chloride. The solvent carrier was water.
as §2, §3, §4, §5

[7] = tested on: Ilyanassa obsoleta (mud snails); assay type: in vivo
Procedure: Tanks were aerated with air stones. Snails were fed commercially available algal pellets.
The solvent carrier was water.
No evidence of either was found.
as §6, §7, §8

[8] = control to high atrazine treatments, grass shrimp
[9] = high: 50 M cadmium chloride, 8-hour exposure
[10] = low: 5 M cadmium chloride, 8-hour exposure

O=S1OCC2C(CO1)C1(Cl)C(Cl)=C(Cl)C2(Cl)C1(Cl)Cl (stereo not shown) [Endosulfan, endosulfan]
B-crystallin ([1]; high: 1 g/L endosulfan): 13 ± 2.7 pg Hsp or B-crystallin/ g total protein
Hsp26 ([1]; high: 1 g/L endosulfan): 23 ± 3.3 pg Hsp or B-crystallin/ g total protein
Metallo. (metallothionein) ([1]; high: 1 g/L endosulfan): 14 ± 3.11 ng metallothionein/mg total protein
B-crystallin ([1]; low: 50 ng/L endosulfan): 12 ± 3.1 pg Hsp or B-crystallin/ g total protein
Hsp26 ([1]; low: 50 ng/L endosulfan): 20 ± 12.673 pg Hsp or B-crystallin/ g total protein
Metallo. (metallothionein) ([1]; low: 50 ng/L endosulfan): 19.4 ± 1.99 ng metallothionein/mg total protein
B-crystallin ([1]; medium: 500 ng/L endosulfan): 11 ± 3.9 pg Hsp or B-crystallin/ g total protein
Hsp26 ([1]; medium: 500 ng/L endosulfan): 19 ± 5.9 pg Hsp or B-crystallin/ g total protein
Metallo. (metallothionein) ([1]; medium: 500 ng/L endosulfan): 22.2 ± 3.15 ng metallothionein/mg total protein

CCNc1nc(Cl)nc(NC(C)C)n1 [Atrazine, atrazine]
Levels of LPO decreased [2, 8]: 38%
levels of Hsp60 increased [2, 8]: nearly five-fold
B-crystallin ([2]; high: 1 mg/L atrazine): 190 ± 27 ng Hsp or B-crystallin/ g total protein
Metallo. (metallothionein) ([2]; high: 1 mg/L atrazine): 1.7 ± 0.35 ng metallothionein/mg total protein
SOD (Mn SOD) ([2]; high: 1 mg/L atrazine): 7.9 ± 1.86 g SOD/ mg total protein
B-crystallin ([2]; low: 1 g/L atrazine): 290 ± 27 ng Hsp or B-crystallin/ g total protein
Metallo. (metallothionein) ([2]; low: 1 g/L atrazine): 1.4 ± 0.17 ng metallothionein/mg total protein
SOD (Mn SOD) ([2]; low: 1 g/L atrazine): 4.3 ± 0.23 g SOD/ mg total protein
ubiquitin ([2]; low: 1 g/L atrazine): 1.44 ± 0.068 nanog ubiquitin/ g total protein
B-crystallin ([2]; medium: 500 g/L atrazine): 250 ± 45 ng Hsp or B-crystallin/ g total protein
Metallo. (metallothionein) ([2]; medium: 500 g/L atrazine): 1.8 ± 0.45 ng metallothionein/mg total protein
SOD (Mn SOD) ([2]; medium: 500 g/L atrazine): 4.6 ± 1.61 g SOD/ mg total protein
ubiquitin ([2]; medium: 500 g/L atrazine): 1.38 ± 0.066 nanog ubiquitin/ g total protein
B-crystallin ([3]; high: 1 mg/L atrazine): 25 ± 2.1 pg Hsp or B-crystallin/ g total protein
Cyt. P450 (cytochrome P450 2E1 homologue) ([3]; high: 1 mg/L atrazine): 17.8 ± 3.07 relative protein concentrations
GSH ([3]; high: 1 mg/L atrazine): 83 ± 3.1 mM GSH/ g total protein
Hsp22 ([3]; high: 1 mg/L atrazine): 6 ± 1.9 pg Hsp or B-crystallin/ g total protein
Hsp60 ([3]; high: 1 mg/L atrazine): 0.158 ± 0.0086 pg Hsp or B-crystallin/ g total protein
Hsp70 ([3]; high: 1 mg/L atrazine): 121.8 ± 6.08 pg Hsp or B-crystallin/ g total protein
LPO ([3]; high: 1 mg/L atrazine): 1.32 ± 0.037 mM LPO/mg total protein
Metallo (metallothionein) ([3]; high: 1 mg/L atrazine): 8.6 ± 1.72 ng metallothionein/mg total protein
Mn SOD ([3]; high: 1 mg/L atrazine): 7.8 ± 1.66 relative protein concentrations
ubiquitin ([3]; high: 1 mg/L atrazine): 41 ± 3.7 ng ubiquitin/ g total protein
B-crystallin ([3]; low: 1 g/L atrazine): 29 ± 1.3 pg Hsp or B-crystallin/ g total protein
Cyt. P450 (cytochrome P450 2E1 homologue) ([3]; low: 1 g/L atrazine): 18.0 ± 2.90 relative protein concentrations
GSH ([3]; low: 1 g/L atrazine): 85 ± 3.6 mM GSH/ g total protein
Hsp22 ([3]; low: 1 g/L atrazine): 6 ± 2.0 pg Hsp or B-crystallin/ g total protein
Hsp70 ([3]; low: 1 g/L atrazine): 123.4 ± 7.05 pg Hsp or B-crystallin/ g total protein
LPO ([3]; low: 1 g/L atrazine): 1.16 ± 0.040 mM LPO/mg total protein
Metallo (metallothionein) ([3]; low: 1 g/L atrazine): 18.2 ± 2.06 ng metallothionein/mg total protein
Mn SOD ([3]; low: 1 g/L atrazine): 9.0 ± 1.76 relative protein concentrations
ubiquitin ([3]; low: 1 g/L atrazine): 42 ± 3.9 ng ubiquitin/ g total protein

CC(C)=O [acetone]
induction of Hsp70 homologues ([4]; immunoblot): inducible by all treatments except ethanol and acetone
induction of protein detected by Mn SOD antibody (about 26 kDa) ([4]; immunoblot): not by exposure to acetone
induction of protein detected by Cytochrome P450 2E1 antibody (ca. 50 kDa) ([4]; in vivo): ethanol- and acetone-inducible
induction of Hsp70 homologues ([5]; immunoblot): inducible by all treatments except ethanol and acetone
induction of protein detected by Mn SOD antibody (about 23 kDa) ([5]; immunoblot): not by exposure to ethanol or acetone
induction of proteins detected by Cytochrome P450 2E1 antibody (ca. 53 kDa) ([5]; in vivo): ethanol- and acetone-inducible

[Cl][Cd][Cl] [Cadmium Chloride, cadmium chloride]
Metallothionine increase in mean levels compared to the control ([6]; high CdCl2 concentrations, grass shrimp): more than a six-fold increase
Cyt. P450 (cytochrome P450 2E1) ([6]; high: 50 uM cadmium chloride): 12.9 ± 1.26 relative protein concentrations
SOD (Mn SOD) ([6]; high: 50 uM cadmium chloride): 4.0 ± 0.16 g SOD/ mg total protein
Cyt. P450 (cytochrome P450 2E1) ([6]; low: 1 uM cadmium chloride): 14.5 ± 1.19 relative protein concentrations
SOD (Mn SOD) ([6]; low: 1 uM cadmium chloride): 3.3 ± 0.12 g SOD/ mg total protein
Cyt. P450 (cytochrome P450 2E1) ([6]; medium: 5 uM cadmium chloride): 13.4 ± 1.48 relative protein concentrations
SOD (Mn SOD) ([6]; medium: 5 uM cadmium chloride): 4.3 ± 0.80 g SOD/ mg total protein
induction of protein detected by Cytochrome P450 2E1 antibody (ca. 50 kDa) ([4]; immunoblot): did not elicit significant accumulation
induction of protein detected by Mn SOD antibody (about 26 kDa) ([4]; immunoblot): inducible by both heat stress and cadmium
induction of protein detected by Mn SOD antibody (about 23 kDa) ([5]; immunoblot): inducible by both heat stress and cadmium
induction of proteins detected by Cytochrome P450 2E1 antibody (ca. 53 kDa) ([5]; immunoblot): did not elicit significant accumulation
induction of proteins detected by metallothionein antibody (ca. 7 k to 12 kDa) ([5]; immunoblot): cadmium-inducible
Metallothionine increase in mean levels compared to the control ([7]; high CdCl2 concentrations, mud snails): more than a six-fold increase
Cyt. P450 (cytochrome P450 2E1 homologue) [7, 9]: 27.4 ± 3.14 relative protein concentrations
LPO [7, 9]: 1.16 ± 0.093 mM LPO/mg total protein
Cyt. P450 (cytochrome P450 2E1 homologue) [7, 10]: 28.6 ± 3.11 relative protein concentrations
Hsp60 [7, 10]: 0.419^b ± pg Hsp or B-crystallin/ g total protein
LPO [7, 10]: 1.1 mM LPO/mg total protein

CCO [ethanol]
induction of Hsp70 homologues ([4]; in vivo): inducible by all treatments except ethanol and acetone
induction of protein detected by Cytochrome P450 2E1 antibody (ca. 50 kDa) ([4]; in vivo): ethanol- and acetone-inducible
induction of Hsp70 homologues ([5]; in vivo): inducible by all treatments except ethanol and acetone
induction of protein detected by Mn SOD antibody (about 23 kDa) ([5]; in vivo): not by exposure to ethanol or acetone
induction of proteins detected by Cytochrome P450 2E1 antibody (ca. 53 kDa) ([5]; in vivo): ethanol- and acetone-inducible
